Patent US12139461B1, “Piperidine compounds as PDE5 inhibitors” (KING SAUD UNIVERSITY, priority 2024, dated 2024)
Where “and” joins values, the source holds several entries; their conditions need not be identical. Identical values can stand only once. Values belong to the molecule of their own block, whether it stands above or below them.

Tests used:
[1] = biological target: Phosphodiesterase type 5 (PDE5) (Homo sapiens (Human), UniProt O76074); experiment: In vitro phosphodiesterase type 5 (PDE5) inhibition assay; assay type: biochemical; settings: purified PDE5, IMAP FP assay
male rats = experiment: Copulatory behavior testing; assay type: in vivo, rat; settings: 5 mg/kg oral; for copulatory efficiency (CE): CE=(IF/MF)x100; for mean intromission interval (MII): MII=EL/IF
Experimental: Sexually mature Wistar albino male and female rats weighing 150-180 g (10-14 weeks old) were used in our study. Males were trained for sexual behavior with estrus females, that is, two hours a day for one week, before the investigations. Females were brought into the estrous phase artificially by sequential injection of estradiol benzoate (Sigma) (25 μg/animal) and progesterone (Sigma) (250 μg/animal) subcutaneously, 48 and 4 hours before pairing, respectively. Only those sexually active animals were used subsequently in the study. Sexually active rats were isolated and housed in separate cages at room temperature (24±2° C.) on a reversed day/night cycle with a relative humidity of 50-55% during the experimental period. All sexual studies were performed in a calm laboratory condition under subdued light. For the toxicity study, adult Wistar albino male rats were used separately. Rats were obtained from the Experimental Animal Care Center, College of Pharmacy, King Saud University. Animals were fed with a standard pellet diet and provided water ad libitum. All experiments were performed per the protocols and recommendations of the NIH Guide for the Care and Use of Laboratory Animals and the legal requirements of King Saud University for investigations on humans and animals.
Based on a preliminary study to select the appropriate dose for the promising synthesized compounds, the compounds were administered separately to sexually experienced male rats by oral gavage at 5 mg/kg in a 0.5% sodium carboxymethyl cellulose (CMC) vehicle. […] All solutions were freshly prepared at a concentration that allowed the administration of 1 ml/kg.
After drug treatment, rats were housed separately in transparent cages for acclimation. Thirty minutes after drug treatment, a sexually receptive female rat with estrous phase was introduced in each cage for 30 min and the following parameters of the copulatory behavior were recorded: namely mount latency (ML; time from introduction of the female until the first mount with or without penile insertion, it measures the degree of arousal or sexual interest or libido of the male), mount frequency (MF; the number of mounts until ejaculation, it is a measure of the degree of the male's sexual interest or libido), intromission latency (IL; time from introduction of the female until the first intromission, it measures the degree of sexual excitement and erection), intromission frequency (IF; number of vaginal penetrations until ejaculation, it measures the degree of erection), ejaculation latency (EL; time from the first intromission until ejaculation, it determines the excellent organization of copulation in rats) and post-ejaculatory interval (PEI; time interval between an ejaculation and the following first mount, it measures the refractory period that comes after ejaculation). Latency values represent the number of seconds that elapses from the introduction of the female into the copulatory arena until the male executes the first mount, intromission or ejaculation. Frequency values represent the number of ejaculations, mounts or intromission recorded during the copulatory test.
Depending on these parameters, the following can be calculated: Copulatory efficiency (CE)=(IF/MF)×100 and mean intromission interval (MII)=EL/IF as previously described (Aydogan F. et al., J Ethnopharmacol 257 (2020) 112868; Besong E B. et al., Biochem Res Int 2018 (2018) 2869727, the contents of each of which are hereby incorporated by reference in their entirety). Experiments were repeated blindly three times using new fresh (unused) animals in each experiment.

[2] = system: sexually experienced male rats; experiment: Penile erection index (noncontact erection test); assay type: in vivo, rat; settings: for ED50: Rattus norvegicus, linear regression of proportion of responding rats, read-out: effective dose ED50 (dose required to give 50% responding rats); for erectile response: oral treatment
Experimental: The penile erection index is an established means of determining the erection promoting properties of a substance. Determination of penile erection in a noncontact position was calculated as reported previously (Haripriya V M. et al., Andrologia 51 (2019) e13180; Sharma V. et al., J Ethnopharmacol 143 (2012) 201-206, the contents of each of which are hereby incorporated by reference in their entirety). The sexually experienced male rats of all groups were given the treatment 30 minutes before experimentation. The number of animals for each dose was ten rats in each experiment. […] The results shown are the average of three separate experiments. Control animals were given 0.5% CMC as a vehicle.
The rats of each group were placed in the observation cages (five at a time) divided into half by two sheets of metal mesh, preventing contact but allowing auditory, visual and olfactory stimuli. After a 5-min adaptation period, the test was started by placing an estrus female on the other side of the cage. Penile erection was recorded when the rats bent down to lick their erect penis. Homosexual mounting was also counted when a male rat mounted another male rat performing pelvic thrusts with or without a penile erection. […] The effective dose ED50 (the dose required to give 50% responding rats) for examined compounds was calculated using linear regression analysis by GraphPad software with the proportion of responding rats as the input data and expressed as μmol/kg.

male diabetic rats = experiment: Copulatory behavior testing in diabetic animals; assay type: in vivo, rat; settings: 5 mg/kg/day for 14 days; for ejaculation latency (EL) / intromission frequency (IF) / intromission latency (IL) / mount frequency (MF) / mount latency (ML) / post-ejaculatory interval (PEI) / copulatory efficiency (CE) / mean intromission interval (MII): male diabetic rats; for copulatory efficiency (CE): CE=(IF/MF)x100; for mean intromission interval (MII): MII=EL/IF; for sexual function in diabetic rats: versus diabetic control rats
Experimental: Nearly 90% of the population suffering from diabetic conditions report disturbances in sexual function, encompassing a decrease in libido, impotence and infertility (Kamenov Z A, Exp Clin Endocrinol Diabetes 123 (2015) 141-158). Diabetic was induced in experimental animals by intraperitoneal administration of streptozotocin in separate groups of male animals. Diabetes was induced by a single intraperitoneal injection of freshly prepared 65 mg/kg streptozotocin in […] citrate buffer, pH 4.4 (Mendez J D and Ramos H G, Arch Med Res 25 (1994) 367-375). All rats receiving streptozotocin were given a 10% sucrose solution in the first 48 h after injection to prevent hypoglycemia. After 72 h of streptozotocin administration, rats with fasting serum glucose more than 350 mg/dL were considered as diabetic. Glibenclamide was given by oral gavage once a day (10 mg/kg/day) to diabetic animals to avoid mortality throughout the investigation (Abdel-Aziz A A-M. et al., Eur J Med Chem 46 (2011) 4324-4329). The male rats were trained for sexual behavior study before induction of diabetes and treatment, as mentioned above. Diabetic rats were given a daily oral dose of 5 mg/kg of compounds C9, C14 and C21 for 14 consecutive days. The sexual behavior of the animals was assessed on day 15 of the treatment. The copulatory behavior testing was performed, and CE and MII were calculated.

[3] = Evaluation of LD50 (acute oral toxicity); assay type: in vivo; settings: rat, in vivo, po; single intragastric administration, rats, 24 h
Text: (§1) Healthy rats were divided into groups of 10 rats and maintained as described above. Rats had free access to water and food, except for a short fasting period before the treatment with the single oral dose of compounds C9, C14 and C21 or the solvent. The compounds were formulated with 1% CMC. An approximate LD50 was initially determined in a pilot study by a so called ‘staircase method’ using a small number of animals (2 each dose) and increasing doses of tested compounds. Three doses were then chosen for the determination of oral median lethal dose (LDso) (500, 1000 and 2000 mg/kg) and given to three groups of rats (10 in each group). Another group of rats (6 rats) was given equal amounts of 1% CMC orally and served as a control group. […] After 24 hours, the number of dead rats was counted in each group. The percentage of animals that had died at each dose level was transformed to probits, and then LD50 was determined by the method of Miller and Tainter, 1944 as described previously (Randhawa M A, J Ayub Med Coll Abbottabad 21 (2009) 184-185, the contents of which are hereby incorporated by reference in their entirety).

rats = experiment: Evaluation of LD50 (acute oral toxicity); assay type: in vivo; settings: single oral dose 500-2000 mg/kg
Text: as §1

- IC50 [1]: 56.7 nM and 56.8 nM
- melting point: 217 to 219 °C
Structure (SMILES): O=S(=O)(c1ccc(Cl)c(Cl)c1)N1CCC(c2ccccc2)CC1 [Compound C11, 1-((3,4-Dichlorophenyl)sulfonyl)-4-phenylpiperidine]
- efficacy in improving copulatory behavior (male rats): more pronounced
- ejaculation latency (EL) (male rats): 318.1 s
- intromission frequency (IF) (male rats): 8.3
- intromission latency (IL) (male rats): 205.5 s
- mount frequency (MF) (male rats): 17.1
- mount latency (ML) (male rats): 94.6 s
- post-ejaculatory interval (PEI) (male rats): 393.5 s
- copulatory efficiency (CE) (male rats): 48.5%
- mean intromission interval (MII) (male rats): 39.6
- ED50 ([2]; oral): 12.7 µmol/kg

Structure (SMILES): O=S(=O)(c1ccc(Cl)cc1Cl)N1CCC(c2ccccc2)CC1 [Compound C9, 1-((2,4-Dichlorophenyl)sulfonyl)-4-phenylpiperidine]
- IC50 [1]: 47.9 nM
- efficacy in improving copulatory behavior (male rats): more pronounced
- ejaculation latency (EL) (male rats): 368.3 s
- intromission frequency (IF) (male rats): 12.8
- intromission latency (IL) (male rats): 177.6 s
- mount frequency (MF) (male rats): 23.6
- mount latency (ML) (male rats): 74.6 s
- post-ejaculatory interval (PEI) (male rats): 355.6 s
- copulatory efficiency (CE) (male rats): 55.2%
- mean intromission interval (MII) (male rats): 29.0
- erectile response ([2]; 1.25-5 mg/kg): statistically elevated
- penile erection index (PEI) ([2]; oral, dose 1.25 mg/kg): 23.3 ± 3.3
- penile erection index (PEI) ([2]; oral, dose 2.5 mg/kg): 53.3 ± 8.8
- penile erection index (PEI) ([2]; oral, dose 5 mg/kg): 60.0 ± 5.7
- ejaculation latency (EL) (male diabetic rats): 223.3 s
- intromission frequency (IF) (male diabetic rats): 4.3
- intromission latency (IL) (male diabetic rats): 305.1 s
- mount frequency (MF) (male diabetic rats): 10.6
- mount latency (ML) (male diabetic rats): 137.1 s
- post-ejaculatory interval (PEI) (male diabetic rats): 552.8 s
- copulatory efficiency (CE) (male diabetic rats): 40.9%
- mean intromission interval (MII) (male diabetic rats): 53.1
- sexual function in diabetic rats (male diabetic rats): restored
- LD50 at 24 h [3]: > 2000 mg/kg
- toxic symptoms after oral dosing (rats): gradually became drowsy and less responsive

Structure (SMILES): NS(=O)(=O)c1ccc(CNC(=O)CN2CCC(Cc3ccccc3)CC2)cc1 [Compound C14, 2-(4-Benzylpiperidin-1-yl)-N-(4-sulfamoylbenzyl)acetamide]
- IC50 [1]: 39.4 nM
- efficacy in improving copulatory behavior (male rats): more pronounced
- ejaculation latency (EL) (male rats): 425.1 s
- intromission frequency (IF) (male rats): 20.6
- intromission latency (IL) (male rats): 122.6 s
- mount frequency (MF) (male rats): 27.3
- mount latency (ML) (male rats): 54.6 s
- post-ejaculatory interval (PEI) (male rats): 277.1 s
- copulatory efficiency (CE) (male rats): 76.2%
- mean intromission interval (MII) (male rats): 20.8
- ED50 ([2]; oral): 10.1 µmol/kg
- erectile response ([2]; 1.25-5 mg/kg): statistically elevated
- animal response (proportion of responding rats) with dose ([2]; oral, 1.25-5 mg/kg): higher response
- penile erection index (PEI) ([2]; oral, dose 1.25 mg/kg): 26.6 ± 3.4
- penile erection index (PEI) ([2]; oral, dose 2.5 mg/kg): 46.6 ± 3.3
- penile erection index (PEI) ([2]; oral, dose 5 mg/kg): 90.0 ± 11.5
- ejaculation latency (EL) (male diabetic rats): 208.3 s
- intromission frequency (IF) (male diabetic rats): 3.8
- intromission latency (IL) (male diabetic rats): 327.6 s
- mount frequency (MF) (male diabetic rats): 10.6
- mount latency (ML) (male diabetic rats): 158.0 s
- post-ejaculatory interval (PEI) (male diabetic rats): 505.6 s
- copulatory efficiency (CE) (male diabetic rats): 35.6%
- mean intromission interval (MII) (male diabetic rats): 55.7
- sexual function in diabetic rats (male diabetic rats): restored
- LD50 at 24 h [3]: > 2000 mg/kg
- toxic symptoms after oral dosing (rats): gradually became drowsy and less responsive

Structure (SMILES): O=S(=O)(c1ccc(Cl)cc1Cl)N1CCC(Cc2ccccc2)CC1 [Compound C21, 4-Benzyl-1-((2,4-dichlorophenyl)sulfonyl)piperidine]
- IC50 [1]: 41.2 nM
- efficacy in improving copulatory behavior (male rats): more pronounced
- ejaculation latency (EL) (male rats): 395.0 s
- intromission frequency (IF) (male rats): 16.8
- intromission latency (IL) (male rats): 178.6 s
- mount frequency (MF) (male rats): 26.6
- mount latency (ML) (male rats): 72.5 s
- post-ejaculatory interval (PEI) (male rats): 298.0 s
- copulatory efficiency (CE) (male rats): 63.6%
- mean intromission interval (MII) (male rats): 23.74
- ED50 ([2]; oral): 14.3 µmol/kg
- erectile response ([2]; 1.25-5 mg/kg): statistically elevated
- penile erection index (PEI) ([2]; oral, dose 1.25 mg/kg): 26.5 ± 6.6
- penile erection index (PEI) ([2]; oral, dose 2.5 mg/kg): 46.6 ± 3.3
- penile erection index (PEI) ([2]; oral, dose 5 mg/kg): 63.3 ± 3.4
- ejaculation latency (EL) (male diabetic rats): 248.5 s
- intromission frequency (IF) (male diabetic rats): 4.3
- intromission latency (IL) (male diabetic rats): 326.0 s
- mount frequency (MF) (male diabetic rats): 10.6
- mount latency (ML) (male diabetic rats): 154.6 s
- post-ejaculatory interval (PEI) (male diabetic rats): 510.5 s
- copulatory efficiency (CE) (male diabetic rats): 41.1%
- mean intromission interval (MII) (male diabetic rats): 59.1
- sexual function in diabetic rats (male diabetic rats): restored
- LD50 at 24 h [3]: > 2000 mg/kg
- toxic symptoms after oral dosing (rats): gradually became drowsy and less responsive

- IC50 [1]: 296 ± 5.77 nM
- melting point: 157 to 159 °C
Structure (SMILES): Cc1cc(C)c(S(=O)(=O)N2CCC(c3ccccc3)CC2)c(C)c1 [Compound C6, 1-(Mesitylsulfonyl)-4-phenylpiperidine]
